Laboratory results taken from publication PMC6273168, “Synthesis and Biological Evaluation of Novel 4-Morpholino-7,8-dihydro-5H-thiopyrano[4,3-d]pyrimidine Derivatives Bearing Phenylpyridine/ Phenylpyrimidine-Carboxamides” (Molecules, 2016).

Legend:
[1] = test system: MCF-7 (human breast cancer) cell line; assay: MTT cell proliferation (cytotoxicity) assay, MCF-7; type: cell-based; settings: Homo sapiens, MCF7, 72 h, average of two separate determinations
Experimental: (§1) Taking GDC-0941 as reference compound, the target compounds […], 12a–j, 13a–g and 14a–g ere evaluated for the cytotoxicity against the three cancer cell lines A549, PC-3 and MCF-7 usg 3-(4,5-dimethylthiazolyl-2)-2,5-diphenyltetrazolium bromide (MTT) cell proliferation assays. In addition, one selected compounds 12h was fher evaluated for PI3Kα kinase inhibitory activity. The results, expressed as IC50 values or inhibitory rate, are sumrized in Table 1, Table 2 and Table 3.
(§2) The in vitro cytotoxic activities of all the compounds 11a–11j, 12a–12j, 13a–13g and 14a–14g was evaluated with A549, PC-3 and MCF-7 cell lines by the standard MTT assay, with GDC-0941 as positive control. The cancer cell lines were cultured in minimum essential medium (MEM) supplement with 10% fetal bovine serum (FBS). Approximately 4 × 10^3 cells, suspended in MEM medium, were plated onto each well of a 96-well plate and incubated in 5% CO2 at 37 °C for 24 h. The test compounds at indicated final concentrations were added to the culture medium and the cell cultures were continued for 72 h. Fresh MTT was added to each well at a terminal concentration of […] and incubated with cells at 37 °C for 4 h. The formazan crystals were dissolved in 100 µL DMSO each well, and the absorbency at 492 nm (for absorbance of MTT formazan) and 630 nm (for the reference wavelength) was measured with an ELISA reader. All of the compounds were tested three times in each of the cell lines. The results expressed as inhibition rates or IC50 (half-maximal inhibitory concentration) were the averages of two determinations and calculated by using the Bacus Laboratories Inc. Slide Scanner (Bliss) software (the Bacus Laboratories Inc. Slide Scanner (BLISS) system, Lombard, IL, USA).

[2] = test system: A549 (human lung cancer) cell line; assay: MTT cell proliferation (cytotoxicity) assay, A549; type: cell-based; settings: Homo sapiens, A549, 72 h, average of two separate determinations
Experimental: as §1, §2

PI3Kα = PI3Kα (Homo sapiens, UniProt P42336); assay: PI3Kα Kinase-Glo Luminescent Kinase Assay; type: biochemical
[3] = test system: PC-3 (human prostatic cancer) cell line; assay: MTT cell proliferation (cytotoxicity) assay, PC-3; type: cell-based; settings: Homo sapiens, 72 h, average of two separate determinations
Experimental: as §1, §2

PI3Kα, sequence (P42336 whole entry): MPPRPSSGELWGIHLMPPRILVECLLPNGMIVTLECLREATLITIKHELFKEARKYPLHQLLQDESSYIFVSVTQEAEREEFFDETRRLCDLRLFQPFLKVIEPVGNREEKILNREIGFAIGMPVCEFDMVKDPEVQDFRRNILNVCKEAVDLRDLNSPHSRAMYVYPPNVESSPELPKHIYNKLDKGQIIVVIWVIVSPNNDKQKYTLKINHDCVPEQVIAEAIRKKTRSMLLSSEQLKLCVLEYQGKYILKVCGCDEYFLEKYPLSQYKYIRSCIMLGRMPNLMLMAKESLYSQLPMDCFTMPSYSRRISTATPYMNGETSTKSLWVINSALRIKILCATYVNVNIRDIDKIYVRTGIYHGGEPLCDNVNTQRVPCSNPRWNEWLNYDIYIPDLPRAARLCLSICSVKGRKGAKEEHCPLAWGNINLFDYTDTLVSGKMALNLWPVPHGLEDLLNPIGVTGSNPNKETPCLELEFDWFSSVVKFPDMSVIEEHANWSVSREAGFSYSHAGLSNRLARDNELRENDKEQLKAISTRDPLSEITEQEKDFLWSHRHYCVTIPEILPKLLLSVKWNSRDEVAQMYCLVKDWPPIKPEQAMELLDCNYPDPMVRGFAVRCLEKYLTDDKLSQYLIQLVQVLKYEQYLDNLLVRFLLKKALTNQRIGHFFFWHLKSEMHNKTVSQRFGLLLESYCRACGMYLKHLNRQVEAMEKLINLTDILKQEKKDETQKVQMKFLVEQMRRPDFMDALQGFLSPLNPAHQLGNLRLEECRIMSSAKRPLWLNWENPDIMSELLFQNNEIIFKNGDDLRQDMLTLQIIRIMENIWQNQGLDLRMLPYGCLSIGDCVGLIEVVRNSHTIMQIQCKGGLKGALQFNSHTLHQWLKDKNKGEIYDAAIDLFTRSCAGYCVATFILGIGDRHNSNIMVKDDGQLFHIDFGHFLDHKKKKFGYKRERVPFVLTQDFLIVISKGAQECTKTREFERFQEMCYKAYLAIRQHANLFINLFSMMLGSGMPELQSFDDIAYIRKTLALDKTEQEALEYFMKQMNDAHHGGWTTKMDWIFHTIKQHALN
PI3Kα, sequence (P27986 whole entry partner): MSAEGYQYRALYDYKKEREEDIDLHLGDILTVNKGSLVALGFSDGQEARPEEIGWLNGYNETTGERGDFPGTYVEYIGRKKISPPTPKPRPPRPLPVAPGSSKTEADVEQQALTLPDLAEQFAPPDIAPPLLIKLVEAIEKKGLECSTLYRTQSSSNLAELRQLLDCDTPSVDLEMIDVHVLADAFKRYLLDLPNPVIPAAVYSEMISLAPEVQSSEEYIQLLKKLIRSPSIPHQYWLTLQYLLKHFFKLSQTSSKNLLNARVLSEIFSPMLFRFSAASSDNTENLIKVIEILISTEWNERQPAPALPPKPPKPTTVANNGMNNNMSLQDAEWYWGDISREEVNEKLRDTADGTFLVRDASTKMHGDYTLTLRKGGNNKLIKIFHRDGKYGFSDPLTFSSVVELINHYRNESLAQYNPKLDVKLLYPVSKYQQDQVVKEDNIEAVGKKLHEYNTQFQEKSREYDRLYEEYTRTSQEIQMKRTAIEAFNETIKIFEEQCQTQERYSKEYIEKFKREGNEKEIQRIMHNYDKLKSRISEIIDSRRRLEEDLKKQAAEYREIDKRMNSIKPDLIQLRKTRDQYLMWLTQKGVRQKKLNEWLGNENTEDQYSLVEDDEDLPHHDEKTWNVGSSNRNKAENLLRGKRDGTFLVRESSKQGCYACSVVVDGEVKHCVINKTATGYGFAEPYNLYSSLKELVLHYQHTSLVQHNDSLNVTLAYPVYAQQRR

melting point [°C]	IC50 (PI3Kα; Kinase-Glo, 1 µM ATP, 60 min, average of two separate determinations) [µM]	inhibitory rate against PI3Ka kinase (PI3Kα; at 10 µM, in words)	SMILES	IC50 ([1]; Table 1) [µM]	IC50 ([2]; Table 1) [µM]	IC50 ([3]; Table 1) [µM]	IC50 ([1]; Table 2) [µM]	IC50 ([2]; Table 2) [µM]	IC50 ([3]; Table 2) [µM]
276.8 to 279.1	7.39 ± 0.194	moderate	CCc1ccc(-c2ccnc(C(=O)Nc3ccc(-c4nc5c(c(N6CCOCC6)n4)CS(=O)(=O)CC5)cc3)c2)cc1 [Compound 12h, N-(4-(4-Morpholino-7,8-dihydro-6,6-dioxide-5H-thiopyrano[4,3-d]pyrimidin-2-yl)phenyl)-4-(4-ethylphenyl) picolinamide]	9.26 ± 0.82	8.37 ± 0.1	11.34 ± 0.11			
> 300			O=C(Nc1ccc(-c2nc3c(c(N4CCOCC4)n2)CS(=O)(=O)CC3)cc1)c1cc(-c2ccc(Cl)cc2)ncn1 [Compound 14f]				> 100	> 100	> 100
287.1 to 289.2			O=C(Nc1ccc(-c2nc3c(c(N4CCOCC4)n2)CS(=O)(=O)CC3)cc1)c1cc(-c2ccc(C(F)(F)F)cc2)ncn1 [Compound 14c]				> 100	> 100	> 100
210 to 212.7			COc1ccc(-c2cc(C(=O)Nc3ccc(-c4nc5c(c(N6CCOCC6)n4)CSCC5)cc3)ncn2)cc1 [Compound 13b]				> 100	> 100	> 100
